Test results reported in patent US7718676B2, “2-aminoaryloxazole compounds as tyrosine kinase inhibitors” (AB Science, priority 2003, dated 2010).

melting point [°C]	SMILES
203	Cc1ccc(C(=O)Nc2ccc(C#N)cc2)cc1Nc1ncc(-c2cccnc2)o1 [Compound 058, N-(4-Cyano-phenyl)-4-methyl-3-(5-pyridin-3-yl-oxazol-2-ylamino)-benzamide]
228	Cc1ccc(NC(=O)c2cccc(N(C)C)c2)cc1Nc1ncc(-c2cccnc2)o1 [Compound 010, 3-Dimethylamino-N-[4-methyl-3-(5-pyridin-3-yl-oxazol-2-ylamino)-phenyl]-benzamide]
